Data taken from patent US20120171123A1, “USES AND COMPOSITIONS FOR TREATMENT OF RHEUMATOID ARTHRITIS” (priority 2006, published 2012).
Where two headings read alike, the source gives them in different places. Marks after values point to notes of the source that are not given here.

What was measured:
patients with active RA [1] = experiment: Low-field MRI follow-up of finger joint inflammation (OMERACT-based scores, ESR, DAS28), Study A subset; type: in vivo, human
Protocol: The method included the following. […] Proximal interphalangeal and metacarpophalangeal joints of the dominant hands of these patients were examined by 0.2-Tesla MRI (C-Scan, Esaote, Italy). Clinical examinations and MRI were performed at baseline and during therapy for a mean period of 86 days (range: 42-126 days). The used sequences were coronal T1-weighted spin-echo; coronal short-tau inversion-recovery gradient-echo; and T1-weighted, 3D gradient-echo before and after administration of Gd-DTPA (0.2 mmol/kg body weight). Erythrocyte sedimentation rate (ESR) and Disease Activity Score 28 (DAS28) were measured at all time points. MRI was evaluated according to an Outcome Measures in Arthritis Clinical Trials or OMERACT-based semiquantitative scoring system. Scores were calculated for erosions (0-5 scale, maximum of 40), synovitis (0-3 scale, maximum of 24), and tenosynovitis (0-3 scale, maximum of 12).

[2] = tested on: patients with long-standing RA; experiment: Study 4: change in dosing of concomitant corticosteroids and methotrexate; type: in vivo, human
Excerpt: The mean corticosteroid dose (mg/day) at baseline was 5.56, where the mean corticosteroid dose (mg/day) at the final dose was 3.57 (p<0.0001 (determined by Wilcoxon's signed rank test)).
There was also a change in the dosing of concomitant methotrexate for RA patients in the study being treated with adalimumab. […] For only 8% of patients was the dose of mtx increased.

patients with active RA [3] = experiment: Study A in France: AIMS2-SF quality of life; type: in vivo, human; details: for AIMS2-SF Work component score: working patients only
Excerpt: Efficacy of a treatment for rheumatoid arthritis can be determined by comparing AIMS2-SF scores given by subjects having rheumatoid arthritis. The AIMS2-SF is a shorter version of the AIMS2 (i.e., available in 2-page format) and has psychometric properties similar to those of the AIMS2 (see Guillemin et al. (1997) Arthritis Rheum. 40(7):1267).
Unsatisfactory response or intolerance to at least one prior DMARD was required for enrollment in Study A. A 12-week study period was followed by an optional extension phase, with an efficacy assessment performed at Weeks 2, 6, 12, 20, and every eight weeks thereafter. Patients discontinued the study when they stopped receiving adalimumab or when […].
The HAQ and the Arthritis Impact Measurement Scale Short Form (AIMS2-SF) are both extensively validated health-related quality-of-life outcome measures in RA (Guillemin et al. Arth Rheum 1997; 40(7):1267-1274). Both measures have been proven useful in cohort studies and clinical trials (Guillemin et al). The HAQ and the AIMS2-SF are effective in detecting both long-term and short-term health status changes (Guillemin et al). In France, Study A patients completed the French AIMS2-SF, a tool that measures disease impact on physical function and overall quality-of-life in five components. Study A began in France began in December 2002. Completion of the AIMS2-SF at Study Entry Visit 1, Week 12, and Week 28 (if patient participated in the continuation period) was a component added in March 2003 as a France-specific amendment to the study protocol. Because AIMS2-SF was introduced later into the study, the number of French patients answering the AIMS2-SF is smaller than the overall French Study A population
A total of 266 patients out of 1,002 Study A patients in France completed the AIMS2-SF. AIMS2-SF responders recorded a significant improvement in quality-of-life.

[4] = tested on: patients with moderate to severe rheumatoid arthritis; experiment: Study C (Canadian open-label, adalimumab 40 mg sc eow add-on): TJC/SJC; type: in vivo, human
Protocol: The Canadian Adalimumab Clinical Trial (Study C) was an open-label, multi-center, Phase IIIb study conducted in Canada. […] Efficacy and safety were assessed at baseline, 4, 8, and 12 weeks. Efficacy assessments included tender joint count (TJC 0-28), swollen joint count (SJC 0-28), Disease Activity Score 28 (DAS28), Health Assessment Questionnaire (HAQ), and EULAR response. This was a preliminary analysis of 236 patients. The sample size for each outcome variable is based on the data available at the time of the analysis. The data from this preliminary analysis were compared with the Week 12 data from Study A (N=2008).

[5] = tested on: patients with long-standing RA
[6] = Baseline to Week 12, mean of individual patient differences
[7] = Study C, 12 weeks, preliminary analysis

For “adalimumab: human anti-TNF mAb (HUMIRA, Abbott Laboratories), described in U.S. Pat. No. 6,090,382 as D2E7”, the “mean ESR” value (patients with active RA [1]; after therapy (33.0 before)) was 16.2 mm/hr, the “mean DAS28” value (patients with active RA [1]; after therapy (baseline 6.1)) was 3.8 and the “median tenosynovitis MRI score (max 12)” value (patients with active RA [1]; during therapy (baseline 3)) was 1.5. For the same substance, the “median erosion MRI score (max 40)” value (patients with active RA [1]; during therapy (baseline 6.5), not significant) was 4.5, the “median synovitis MRI score (max 24)” value (patients with active RA [1]; during therapy, mean 86 days (baseline 11), n=16) was 9 and the “mean concomitant corticosteroid dose” value ([2]; at final dose (baseline 5.56)) was 3.57 mg/day. The “mean concomitant mtx dose” value ([2]; at final dose of adalimumab (baseline 15.79)) was 13.81 mg/week, the “patients with dose reduction of steroids” value ([2]; n=294) was 29% and the “patients with increased steroid dose” value ([2]; n=294) was 6%. The “patients with unchanged steroid dose” value ([2]; n=294) was 40%, the “patients with increased mtx dose” value ([2]; n=546) was 8% and the “patients with mtx dose reduction” value ([2]; n=546) was 32%. For the same substance, the “patients with unchanged mtx dose” value ([2]; n=546) was 60%, the “patients able to discontinue steroids” value ([2]; patients on concomitant corticosteroids, n=294) was 24% and the “AIMS2-SF Afect component score” value (patients with active RA [3]; Baseline) was 4.7. For the same substance, the “AIMS2-SF Physical component score” value (patients with active RA [3]; Baseline) was 3.9, the “AIMS2-SF Social component score” value (patients with active RA [3]; Baseline) was 5.3 and the “AIMS2-SF Symptom component score” value (patients with active RA [3]; Baseline) was 6.7. For the same substance, the “AIMS2-SF Physical component, % Change” value (patients with active RA [3]; [6]) was −25.0^§ %, the “AIMS2-SF Social component, % Change” value (patients with active RA [3]; [6]) was 1.6% and the “AIMS2-SF Social component, Mean Change” value (patients with active RA [3]; [6]) was −0.1. The “AIMS2-SF Symptom component, % Change” value (patients with active RA [3]; [6]) was −43.4^§ %, the “AIMS2-SF Symptom component, Mean Change” value (patients with active RA [3]; [6]) was −3.2^§ and the “AIMS2-SF Work component score” value (patients with active RA [3]; Baseline) was 4.2. The “AIMS2-SF Work component score” value (patients with active RA [3]; Week 12) was 3.3, the “AIMS2-SF Afect component score” value (patients with active RA [3]; week 12) was 3.6 and the “AIMS2-SF Physical component score” value (patients with active RA [3]; week 12) was 2.9. For the same substance, the “AIMS2-SF Social component score” value (patients with active RA [3]; week 12) was 5.3, the “AIMS2-SF Symptom component score” value (patients with active RA [3]; week 12) was 3.5 and the “SJC (0-28), change from baseline, median” value [4, 7] was −7 (123). The “TJC (0-28), change from baseline, median” value [4, 7] was −10 (123), the “mean SJC” value ([4]; week 12 (baseline 14)) was 7.4 and the “mean TJC” value ([4]; week 12 (baseline 17)) was 8.1. For the same substance, the Demyelinating disease ([5]; all exposure) was 0.04 E/100-PY, the Lymphoma ([5]; all exposure) was 0.16 E/100-PY and the Pancytopenia ([5]; all exposure) was 0.00 E/100-PY. The Pneumonia ([5]; all exposure) was 0.6 E/100-PY, the Septic arthritis ([5]; all exposure) was 0.12 E/100-PY and the Tuberculosis ([5]; all exposure) was 0.04 E/100-PY. The Urinary tract infections ([5]; all exposure) was 0.28 E/100-PY, the Serious infections ([5]; all exposure, 2485 patient-years) was 2.62 E/100-PY and the Demyelinating disease ([5]; pivotal trials) was 0.13 E/100-PY. The Lymphoma ([5]; pivotal trials) was 0.25 E/100-PY, the Pancytopenia ([5]; pivotal trials) was 0.25 E/100-PY and the Pneumonia ([5]; pivotal trials) was 1.13 E/100-PY. The Septic arthritis ([5]; pivotal trials) was 0.38 E/100-PY, the Tuberculosis ([5]; pivotal trials) was 0.13 E/100-PY and the Urinary tract infections ([5]; pivotal trials) was 0.5 E/100-PY. It also gave a Serious infections ([5]; pivotal trials, 793 patient-years) of 4.16 E/100-PY.
